Reference: article PMC11352108, “Anti-Biofilm and Anti-Inflammatory Properties of the Truncated Analogs of the Scorpion Venom-Derived Peptide IsCT against Pseudomonas aeruginosa” (Antibiotics, 2024)
Where no end group is shown, it is not given here.

Test system: RAW 264.7 macrophages
Test: Cytotoxicity assay (MTT)
Assay type: cell-based, murine
Settings: 48 h; for % Viability, Exp.1: replicate Exp.1; for % Viability, Exp.2: replicate Exp.2
Protocol: The murine macrophage cell line RAW264.7 (TIB-71) was obtained from American Type Culture Collection (ATCC; Manassas, VA, USA). RAW 264.7 cells were cultured in DMEM (HyClone^TM, Logan, UT, USA) supplemented with 10% (v/v) heat-inactivated fetal bovine serum (Gibco, Fisher Scientific, Göteborg, Sweden), 2 mM L-glutamine (PAA Laboratories GmbH, Pasching, Austria), 10 mM 4-(2-hydroxyethyl)-1-piperazineethanesulfonic acid (HyClone^TM, Logan, UT, USA), 100 U/mL penicillin, and 100 µg/mL streptomycin (PAA). RAW 264.7 cells were grown in a 5% CO2 at 37 °C.
The cytotoxic effect of the IsCT-Δ6-8 peptide was assessed using the tetrazolium-based 3-(4,5-dimethylthiazol-2-yl)-2,5-diphenyltetrazolium bromide (MTT) assay. RAW 264.7 cells at 3.5 × 10^5 cells were seeded in a 96-well microtiter plate and incubated at 37 °C for 1 h under 5% CO2. Then, the cells were treated with or without the IsCT-Δ6-8 peptide at concentrations ranging from 37.5 μM to 150 μM for 48 h at 37 °C under 5% CO2. After incubation, 20 µL of MTT (5 mg/mL) was added in each well, and the plate was incubated for another 3 h. The supernatant was then discarded, and 100 µL of DMSO was added to solubilize formazan crystals. The plate was subsequently read at OD540 nm using a BioTek Synergy HT microplate reader. The percent cell viability was calculated using the following equation:(2) % Cell viability=OD of treated cells/OD of untreated cells×100

ILGKIIKSLF [IsCT-Δ6-8]
% Viability, Exp.1 (37.5 µM, 37 °C, 5% CO2, MTT, OD 540 nm): 109.403% | % Viability, Exp.2 (37.5 µM, MTT): 94.438% | % Viability, Exp.1 (75 µM, MTT): 102.742% | % Viability, Exp.2 (75 µM, MTT): 96.302% | % Viability, Exp.1 (150 µM, MTT): 94.479% | % Viability, Exp.2 (150 µM, MTT): 100.171% | Viability of RAW 264.7 macrophages (in words) (37.5–150 μM, MTT, compared with untreated control): not significantly changed
